This is an account of results in patent US4755511A, “Tricyclic pyridazinone compounds” (Smith Kline & French Laboratories Limited, priority 1984, dated 1988).

Assay [1] relates to ventricular strips. Kind of assay: Cardiac stimulant activity in vitro: force of contraction of electrically stimulated guinea pig right ventricular strips. To be noted: Cavia porcellus; 50% increase in force of contraction; 0.5 Hz stimulation, Krebs Henseleit solution, 37° C. The protocol: The compounds of formula (I) and their pharmaceutically acceptable salts are tested for cardiac stimulant activity following a procedure based on that of S. […]. Pharm & Exp. Therapeutics, 200, 352-362 (1977)). Guinea pigs (500-700 g) of either sex are sacrificed and the hearts are quickly removed and transferred to a dissecting dish containing oxygenated bathing fluid. While in the bathing medium, the right ventricle is cut into two strips. The strips are each suspended in a 75 ml bath containing Krebs Henseleit solution at 37° C. and the bath is bubbled with 95% oxygen and 5% carbon dioxide. The ventricular strips are electrically stimulated at a frequency of 0.5 Hz, at double the threshold voltage. A resting tension of 1.0 g is applied to the strips and the tension is kept constant by readjustment during an equilibration period of 60 minutes. The bathing fluid is frequently changed during this period. When a steady base line is obtained, a compound under test is added to the bathing fluid and a cumulative concentration response curve is plotted. […] In the above test method the compounds of the Examples gave the following data : […]

For assay [2], the system named is left ventricular dp/dt max. Put plainly: Cardiac stimulant activity in vivo in anaesthetised cats (left ventricular dp/dt max, i.v.). Also on record: species or system cat; key to Relative Duration: ***: Long; **: medium; *: short. To be noted: for ED50: Felis catus, read-out: ED50 (dose to increase left ventricular dp/dt max by 50%), intravenous, anaesthetised cats pretreated with ganglion blocker (mecamylamine or pempidine) and propranolol; for Relative Duration: estimated in the anaesthetised cats following i.v. administration.

The conditions of assay [3]: Curran et al, J. Med. Chem. 1974, p 273; cited from earlier work.

As for `CC12CC(=O)NN=C1c1ccc(C(N)=O)cc1C2` (stereo not drawn) [Example 3, 7-Carboxamido-4,4a-dihydro-4a-methyl-[5H]-indeno[1,2-C]-pyridazin-3[2H]-one], the EC50 in assay [1] was determined as 27 µM. In addition, in assay [2], the ED50 amounted to 0.4 µmol/kg and the “Relative Duration” value is reported as “*”.
As to `COc1ccc2c(c1)CCC1CC(=O)NN=C21` (stereo not drawn) [8-Methoxy-4,4a,5,6-tetrahydrobenzo[h]cinnolin-3[2H]-one], in assay [3], the hypotensive activity result is reported as “not showing any hypotensive activity”.
In assay [1], `CN=C(NC#N)Nc1ccc2c(c1)CCC1CC(=O)NN=C21` (stereo not drawn) [Example 15, 8-(N^2 -Methyl-N^3-cyanoguanidino)-4,4a,5,6-tetrahydrobenzo-[h]cinnolin-3[2H]-one] returned an EC50 of 22 µM. Moreover, in assay [2], the ED50 was found to be 1.2 µmol/kg and the “Relative Duration” value is recorded as “**”.
On to `NC(=O)c1ccc2c(c1)CCC1CC(=O)NN=C21` (stereo not drawn) [Example 17, 8-Carboxamido-4,4a,5,6-tetrahydrobenzo[h]cinnolin-3[2H]-one], for which, in assay [2], the ED50 amounted to 1.2 µmol/kg and the “Relative Duration” value is “**”.
`Nc1ccc2c(c1)CC1CC(=O)NN=C21` (stereo not drawn) [Example 1, 7-Amino-4,4a-dihydro-[5H]-indeno[1,2-c]pyridazin-3[2H]-one] gave an EC50 in assay [1] of 14 µM. Further, in assay [2], the ED50 was 1.8 µmol/kg and the “Relative Duration” value is reported as “**”.
For the molecule `COc1ccc2c(c1)CCc1cc(=O)[nH]nc1-2` [dehydro analogue, 5,6-Dihydro-8-methoxybenzo[h]cinnolin-3[2H]-one], in assay [3], the hypotensive activity entry is “not showing any hypotensive activity”.
With `COc1ccc2c(c1)CC1(C)CC(=O)NN=C21` (stereo not drawn) [Example 7, 4,4a-Dihydro-7-methoxy-4a-methyl-[5H]-indeno[1,2-c]-pyridazin-3[2H]-one], the EC50 in assay [1] is 21 µM. Besides, in assay [2], the ED50 is 1.4 µmol/kg and the “Relative Duration” value is “**”.
For `COc1ccc2c(c1)CCC1(C)CC(=O)NN=C21` (stereo not drawn) [Example 10, 8-Methoxy-4a-methyl-4,4a,5,6-tetrahydrobenzo[h]cinnolin-3[2H]-one], in assay [1], the EC50 is 23 µM. In addition, in assay [2], the ED50 is 0.2 µmol/kg and the “Relative Duration” value was “*”.
As to `CC12CCc3cc(C(N)=O)ccc3C1=NNC(=O)C2` (stereo not drawn) [Example 19, 8-Carboxamido-4a-methyl-4,4a,5,6-tetrahydrobenzo[h]cinnolin-3[2H]-one], in assay [2], the ED50 came out at 1.6 µmol/kg and the “Relative Duration” value is reported as “**”.
